Data reported in patent publication US20250361268A1, “NOVEL ANTI-INFLAMMATORY PEPTIDE AND USE THEREOF” (NOVACELL TECHNOLOGY INC., priority 2022, published 2025).
Peptide text beside a SMILES is read from it.

Columns and labels:
[1] = target: T1, FPR2 (Homo sapiens, UniProt P25090); assay: Change in calcium activity by peptide (Fura-2) in RBL cells overexpressing FPR2; type: cell-based; details: calcium activity (Fura-2), graded per Table 3, read-out: EC50 for [Ca^2+] FPR2
T1 construct: expressed in transfected cells; host or cells: RBL cells (RBL-FPR2)
T1 sequence (P25090 1-351): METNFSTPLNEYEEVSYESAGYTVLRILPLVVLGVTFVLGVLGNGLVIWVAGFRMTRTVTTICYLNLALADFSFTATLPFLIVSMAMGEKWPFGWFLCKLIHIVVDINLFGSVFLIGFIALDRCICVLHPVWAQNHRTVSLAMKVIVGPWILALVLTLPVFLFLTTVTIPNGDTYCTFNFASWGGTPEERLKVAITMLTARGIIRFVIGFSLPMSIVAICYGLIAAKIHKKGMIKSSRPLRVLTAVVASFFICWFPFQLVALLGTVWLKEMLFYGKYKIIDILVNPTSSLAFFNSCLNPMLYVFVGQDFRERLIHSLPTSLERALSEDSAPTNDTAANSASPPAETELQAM
Experimental: The present inventors observed changes in calcium ion permeability to confirm whether the immunomodulatory peptide candidates prepared according to one example of the present invention activate the immune function of a living organism. Specifically, the concentration of calcium ions in cells was measured to confirm whether the peptides activate FPR2.
A peptide dissolved in water or 50% DMSO at a concentration of 0.5 mM was prepared by diluting it to an appropriate concentration in HBSS (Sigma, #55037C)+20 mM HEPES buffer.
In this experiment, the cells were cultured in DMEM (Lonza, #BE12-604F) containing 10% fetal bovine serum (FBS) and 1% penicillin-streptomycin under conditions of 37° C. and 5% CO2.
(§1) The day before measuring calcium activity, the cells were prepared at 3×10^5 cells per well in a 96-well flat clear bottom black plate (Costar, #3603). The prepared cells were treated with a Fura-2 QBT calcium kit (component A; Molecular Devices, #8197) at the same volume per well. After incubation at 37° C. for 1 hour, the cells were incubated in a dark room at room temperature for 30 minutes. After the Fura-2-treated cells, the prepared peptide, and a dedicated tip were placed at each section of FlexStation 3 Multi-Mode Microplate Reader (Molecular Devices, #Flex3), changes in calcium activity caused by the peptides were measured using SoftMax Pro 7 Software (Molecular Devices, #FLEX3-INSTALL-OS).

[2] = target: T2, FPR1 (Homo sapiens, UniProt P21462); assay: Change in calcium activity by peptide, FPR1 activation effect; type: cell-based; details: calcium activity (Fura-2), graded per Table 3, read-out: EC50 for [Ca^2+] FPR1
T2 sequence (P21462 1-350): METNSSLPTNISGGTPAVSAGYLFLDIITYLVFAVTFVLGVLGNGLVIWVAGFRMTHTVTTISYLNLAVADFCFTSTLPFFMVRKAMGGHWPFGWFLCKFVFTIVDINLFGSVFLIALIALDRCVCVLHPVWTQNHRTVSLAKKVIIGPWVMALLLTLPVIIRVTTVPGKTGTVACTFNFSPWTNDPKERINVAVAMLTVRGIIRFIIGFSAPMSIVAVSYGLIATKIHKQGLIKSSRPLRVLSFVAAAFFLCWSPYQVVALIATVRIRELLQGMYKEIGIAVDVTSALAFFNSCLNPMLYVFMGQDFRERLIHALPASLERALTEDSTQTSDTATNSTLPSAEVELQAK
Experimental: as §1, with “#FLEX3-INSTALL-OS). […]” for “#FLEX3-INSTALL-OS).”

| Compound | EC50 [1] | EC50 [2] |
| --- | --- | --- |
| CSCC[C@H](NC(=O)[C@@H]1CCCN1C(C)=O)C(=O)N[C@@H](CCCCN)C(=O)N[C@@H](Cc1ccc(O)cc1)C(=O)N[C@@H](CCCCN)C(=O)N[C@H](C(=O)N[C@H](CCSC)C(N)=O)C(C)C [Peptide 26] (HELM PEPTIDE1{[ac].P.M.K.Y.K.V.[dM].[am]}$$$$V2.0) | < 10 nM | > 10000 nM |
| CCCC(=O)N1CCC[C@H]1C(=O)N[C@@H](CCSC)C(=O)N[C@@H](CCCCN)C(=O)N[C@@H](Cc1ccc(O)cc1)C(=O)N[C@@H](CCCCN)C(=O)N[C@H](C(=O)N[C@H](CCSC)C(N)=O)C(C)C [Peptide 27] (HELM PEPTIDE1{[CCCC(=O)[*:2]].P.M.K.Y.K.V.[dM].[am]}$$$$V2.0) | < 10 nM | > 10000 nM |
| CCCCCCCC(=O)N1CCC[C@H]1C(=O)N[C@@H](CCSC)C(=O)N[C@@H](CCCCN)C(=O)N[C@@H](Cc1ccc(O)cc1)C(=O)N[C@@H](CCCCN)C(=O)N[C@H](C(=O)N[C@H](CCSC)C(N)=O)C(C)C [Peptide 28] (HELM PEPTIDE1{[CCCCCCCC(=O)[*:2]].P.M.K.Y.K.V.[dM].[am]}$$$$V2.0) | < 10 nM | > 10000 nM |
| CSCC[C@@H](NC(=O)[C@@H](NC(=O)[C@H](CCCNC(=N)N)NC(=O)[C@H](Cc1ccc(O)cc1)NC(=O)[C@H](CCCNC(=N)N)NC(=O)[C@H](Cc1c[nH]c2ccccc12)NC(=O)[C@@H](N)CCCNC(=N)N)C(C)C)C(N)=O [Peptide 29] (HELM PEPTIDE1{R.W.R.Y.R.V.[dM].[am]}$$$$V2.0) | < 10 nM | > 10000 nM |
| CSCC[C@H](NC(=O)[C@@H](N)CCCNC(=N)N)C(=O)N[C@@H](CCCNC(=N)N)C(=O)N[C@@H](Cc1ccc(O)cc1)C(=O)N[C@@H](CCCNC(=N)N)C(=O)N[C@H](C(=O)N[C@H](CCSC)C(N)=O)C(C)C [Peptide 30] (HELM PEPTIDE1{R.M.R.Y.R.V.[dM].[am]}$$$$V2.0) | < 10 nM | > 10000 nM |
| CSCC[C@H](NC(=O)[C@@H](N)Cc1c[nH]cn1)C(=O)N[C@@H](CCCNC(=N)N)C(=O)N[C@@H](Cc1ccc(O)cc1)C(=O)N[C@@H](CCCNC(=N)N)C(=O)N[C@H](C(=O)N[C@H](CCSC)C(N)=O)C(C)C [Peptide 31] (HELM PEPTIDE1{H.M.R.Y.R.V.[dM].[am]}$$$$V2.0) | < 10 nM | 1000 to 10000 nM |
| CSCC[C@@H](NC(=O)[C@H](Cc1ccc(O)cc1)NC(=O)[C@H](CCCCN)NC(=O)[C@H](Cc1ccc(O)cc1)NC(=O)[C@H](CCCNC(=N)N)NC(=O)[C@H](Cc1c[nH]c2ccccc12)NC(=O)[C@@H](N)CCCNC(=N)N)C(N)=O [Peptide 32] (HELM PEPTIDE1{R.W.R.Y.K.Y.[dM].[am]}$$$$V2.0) | 11 to 100 nM | > 10000 nM |
| CSCC[C@@H](NC(=O)[C@H](Cc1ccc(O)cc1)NC(=O)[C@H](CCCCN)NC(=O)[C@H](Cc1ccc(O)cc1)NC(=O)[C@H](CCCNC(=N)N)NC(=O)[C@H](Cc1c[nH]c2ccccc12)NC(=O)[C@H](CCCNC(=N)N)NC(C)=O)C(N)=O [Peptide 33] (HELM PEPTIDE1{[ac].R.W.R.Y.K.Y.[dM].[am]}$$$$V2.0) | < 10 nM | > 10000 nM |
| CCCCCCCC(=O)N[C@@H](CCCNC(=N)N)C(=O)N[C@@H](Cc1c[nH]c2ccccc12)C(=O)N[C@@H](CCCNC(=N)N)C(=O)N[C@@H](Cc1ccc(O)cc1)C(=O)N[C@@H](CCCCN)C(=O)N[C@@H](Cc1ccc(O)cc1)C(=O)N[C@H](CCSC)C(N)=O [Peptide 34] (HELM PEPTIDE1{[CCCCCCCC(=O)[*:2]].R.W.R.Y.K.Y.[dM].[am]}$$$$V2.0) | 11 to 100 nM | > 10000 nM |
| CSCC[C@@H](NC(=O)[C@H](Cc1ccc(O)cc1)NC(=O)[C@H](CCCCN)NC(=O)[C@H](Cc1ccc(O)cc1)NC(=O)[C@H](CCCNC(=N)N)NC(=O)[C@@H](N)Cc1c[nH]c2ccccc12)C(N)=O [Peptide 35] (HELM PEPTIDE1{W.R.Y.K.Y.[dM].[am]}$$$$V2.0) | < 10 nM | > 10000 nM |
| CSCC[C@@H](NC(=O)[C@H](Cc1ccc(O)cc1)NC(=O)[C@H](CCCCN)NC(=O)[C@H](Cc1ccc(O)cc1)NC(=O)[C@H](CCCCN)NC(=O)[C@H](Cc1c[nH]c2ccccc12)NC(=O)[C@H](CCCCN)NC(C)=O)C(N)=O [Peptide 36] (HELM PEPTIDE1{[ac].K.W.K.Y.K.Y.[dM].[am]}$$$$V2.0) | < 10 nM | > 10000 nM |
| CCCC(=O)N[C@@H](Cc1c[nH]cn1)C(=O)N[C@@H](Cc1c[nH]c2ccccc12)C(=O)N[C@@H](CCCCN)C(=O)N[C@@H](Cc1ccc(O)cc1)C(=O)N[C@@H](CCCCN)C(=O)N[C@@H](Cc1ccc(O)cc1)C(=O)N[C@H](CCSC)C(N)=O [Peptide 37] (HELM PEPTIDE1{[CCCC(=O)[*:2]].H.W.K.Y.K.Y.[dM].[am]}$$$$V2.0) | < 10 nM | > 10000 nM |
| CSCC[C@H](N)C(=O)N[C@@H](CCCNC(=N)N)C(=O)N[C@@H](Cc1ccc(O)cc1)C(=O)N[C@@H](CCCCN)C(=O)N[C@@H](Cc1ccc(O)cc1)C(=O)N[C@H](CCSC)C(N)=O [Peptide 41] (HELM PEPTIDE1{M.R.Y.K.Y.[dM].[am]}$$$$V2.0) | < 10 nM | > 10000 nM |
| CSCC[C@H](NC(C)=O)C(=O)N[C@@H](CCCNC(=N)N)C(=O)N[C@@H](Cc1ccc(O)cc1)C(=O)N[C@@H](CCCCN)C(=O)N[C@@H](Cc1ccc(O)cc1)C(=O)N[C@H](CCSC)C(N)=O [Peptide 42] (HELM PEPTIDE1{[ac].M.R.Y.K.Y.[dM].[am]}$$$$V2.0) | 11 to 100 nM | > 10000 nM |
| CCCC(=O)N[C@@H](CCSC)C(=O)N[C@@H](CCCNC(=N)N)C(=O)N[C@@H](Cc1ccc(O)cc1)C(=O)N[C@@H](CCCCN)C(=O)N[C@@H](Cc1ccc(O)cc1)C(=O)N[C@H](CCSC)C(N)=O [Peptide 43] (HELM PEPTIDE1{[CCCC(=O)[*:2]].M.R.Y.K.Y.[dM].[am]}$$$$V2.0) | 11 to 100 nM | > 10000 nM |
| CSCC[C@H](NC(=O)[C@@H](N)Cc1c[nH]cn1)C(=O)N[C@@H](CCCNC(=N)N)C(=O)N[C@@H](Cc1ccc(O)cc1)C(=O)N[C@@H](CCCCN)C(=O)N[C@@H](Cc1ccc(O)cc1)C(=O)N[C@H](CCSC)C(N)=O [Peptide 44] (HELM PEPTIDE1{H.M.R.Y.K.Y.[dM].[am]}$$$$V2.0) | 11 to 100 nM | > 10000 nM |
| CCCC(=O)N[C@@H](Cc1c[nH]cn1)C(=O)N[C@@H](CCSC)C(=O)N[C@@H](CCCNC(=N)N)C(=O)N[C@@H](Cc1ccc(O)cc1)C(=O)N[C@@H](CCCCN)C(=O)N[C@@H](Cc1ccc(O)cc1)C(=O)N[C@H](CCSC)C(N)=O [Peptide 45] (HELM PEPTIDE1{[CCCC(=O)[*:2]].H.M.R.Y.K.Y.[dM].[am]}$$$$V2.0) | < 10 nM | > 10000 nM |
| CSCC[C@H](NC(=O)[C@@H]1CCCN1)C(=O)N[C@@H](CCCNC(=N)N)C(=O)N[C@@H](Cc1ccc(O)cc1)C(=O)N[C@@H](CCCCN)C(=O)N[C@@H](Cc1ccc(O)cc1)C(=O)N[C@H](CCSC)C(N)=O [Peptide 46] (HELM PEPTIDE1{P.M.R.Y.K.Y.[dM].[am]}$$$$V2.0) | < 10 nM | > 10000 nM |
| CCCC(=O)N1CCC[C@H]1C(=O)N[C@@H](CCSC)C(=O)N[C@@H](CCCNC(=N)N)C(=O)N[C@@H](Cc1ccc(O)cc1)C(=O)N[C@@H](CCCCN)C(=O)N[C@@H](Cc1ccc(O)cc1)C(=O)N[C@H](CCSC)C(N)=O [Peptide 47] (HELM PEPTIDE1{[CCCC(=O)[*:2]].P.M.R.Y.K.Y.[dM].[am]}$$$$V2.0) | < 10 nM | > 10000 nM |
